Values quoted from earlier work, collected in patent US20240299430A1, “METHODS AND COMPOSITIONS FOR TREATING LONG COVID-19” (Intrinsic Medicine, Inc., priority 2021, published 2024).

Key:
[1] = system: mouse models of rheumatoid arthritis; conditions: administered orally, LPS challenge
[2] = system: murine and human derived macrophages stimulated with LPS and various pro-inflammatory cytokines; conditions: in vitro
[3] = system: PDL1, COX2 and select chemokines, such as CCL2 (MCP1) and CCL5

Row | Compound | clinical assessments of disease [1] | effect on IL-1β, IL-2, IL-4, IL-6, IL-12, IFN γ or TNF-α [2] | extent of cytokine reduction, 3′-SL compared with 6′SL [2] | effect on PDL1, COX2 and chemokines CCL2 (MCP1) and CCL5 [3]
1 | sialyllactose | benefit in clinical assessments of disease |  |  | 
2 | CC(=O)N[C@H]1[C@H]([C@H](O)[C@H](O)CO)O[C@@](OC[C@H]2O[C@@H](O[C@H]3[C@H](O)[C@@H](O)[C@H](O)O[C@@H]3CO)[C@H](O)[C@@H](O)[C@H]2O)(C(=O)O)C[C@@H]1O [6′SL, 6′-sialyllactose] |  | reductions |  | 
3 | CC(=O)N[C@H]1C([C@H](O)[C@H](O)CO)O[C@@](O[C@@H]2C(O)[C@H](O[C@@H]3C(CO)O[C@@H](O)C(O)[C@H]3O)OC(CO)[C@@H]2O)(C(=O)O)C[C@H]1O (some centres unmarked) [3′SL, 3′-sialyllactose] |  | reductions | more significant reductions | reduce
